Earlier results, collected in paper PMC8854719, “Phase 1A/1B dose-escalation and -expansion study to evaluate the safety, pharmacokinetics, food effects and antitumor activity of pamiparib in advanced solid tumours” (British Journal of Cancer, 2021).
Like-named read-outs stand apart in the source and are kept apart here.

Key:
[1] = cited from earlier work
ovarian cancer = settings: Phase 2 studies, BRCAmut ovarian cancer after prior platinum-based chemotherapy; cited from earlier work
[2] = other monotherapy studies in advanced cancer (rucaparib: anaemia/decreased haemoglobin)
[3] = separate Phase 3 trials in ovarian cancer

| SMILES | Anaemia, Grade ≥3 [1, 2] [%] | Anaemia, Grade ≥3 [1, 3] [%] | Anaemia, any Grade [1, 3] [%] | ORR (ovarian cancer) [%] |
| --- | --- | --- | --- | --- |
| NC(=O)c1cccc2cn(-c3ccc([C@@H]4CCCNC4)cc3)nc12 [niraparib] | 24 | 25 | 50 | 28.0 |
| O=C(c1cc(Cc2n[nH]c(=O)c3ccccc23)ccc1F)N1CCN(C(=O)C2CC2)CC1 [olaparib] | 17 | 19 | 44 | 31.1 |
| CNCc1ccc(-c2[nH]c3cc(F)cc4c3c2CCNC4=O)cc1 [rucaparib] | 24.9 | 19 | 37 | 53.8 |
